# Measured values: patent US8455240B2, “Use of thermophilic sulphate-reducing archaea for the implementation of a process for the degradation of hydrocarbons” (Institut de Recherche pour le Development (I.R.D.), priority 2005, dated 2013)
# “And” between values parts separate entries of the source, which are not always exact repeats. Equal values may be shown once. Marks after values point to notes of the source that are not given here.
# Experiments:
# A. fulgidus [1] = assay: Complementary experiment: sulphate as electron acceptor instead of thiosulphate; format: cell-based, Archaeoglobus fulgidus
# Procedure: A first experiment was carried out with A. fulgidus for the purpose of studying the effect of sulphate as an electron acceptor instead of the thiosulphate used previously. […] This explains that at the bottom of the oceans where sulphate is abundant relative to thiosulphate which is in the minority, the phenomenon of DBT or HMN degradation cannot occur spontaneously.
# strain L-3 [2] = assay: Subculture on hydrocarbons, strain L-3 (sulphide production); format: cell-based, Archaeoglobus fulgidus CNCM I-3465 (strain L-3)
# Procedure: (§1) Experimentally, 4 ml of Cord-Ruwish reagent comprising 50 mmol/l of HCl and 5 mmol/l of CuSO4 are added to 0.1 ml of sample. Copper sulphate (CuSO4) by reacting with hydrogen sulphide (H2S), forms a copper sulphide precipitate (CuS) after the reaction: CuSO4+H2S→CuS+H2SO4
# (§2) According to this method, the CuS is assayed by spectrophotometry at 480 nm. The readings are carried out against a blank constituted by 4 ml of Cord-Ruwish reagent.
# (§3) A subculture was carried out starting from the preceding experiment on naphthalene, DBT solubilized as previously in HMN, and on HMN alone, for the two strains studied.
# (§4) For this subculture, apart from the tests containing the hydrocarbon (DBT, naphthalene (Naph), […]), and seeded with the previously chosen inoculum, abiotic controls (negative controls) containing the substrate (hydrocarbon) but not inoculated were produced for the purpose of quantifying the sulphide production which could be due to chemical reactions between the different constituents of the medium. In these controls there was no development in the concentration of sulphide over a period of 20 days (Table 4).
# strain L-3 [3] = assay: Screening for hydrocarbon degradation, strain L-3 (sulphide production, Cord-Ruwish); format: cell-based, Archaeoglobus fulgidus CNCM I-3465 (strain L-3); conditions: for Count / OD 580 / H2S: choice of the inoculum for the subculture; for H2S: tubes of the screening; for ΔS tf-ti: final minus initial sulphide
# Procedure: as §1, §2
# (§5) The study of the hydrocarbon degradation abilities is an experiment which requires a particularly long incubation. Thus, it was carried out in Bellco tubes sealed with thick rubber stoppers.
# (§6) For these experiments, tubes containing 10 ml of culture medium without substrate, are 10% inoculated, then the hydrocarbon is introduced by injection through the stopper.
# (§7) The hydrocarbons chosen are model molecules belonging to the different classes of hydrocarbons, namely: • hexadecane (CH3(CH2)14CH3, C16), a saturated linear aliphatic hydrocarbon; • hexadecene (CH3(CH2)13CHCH2, C16:1), an unsaturated linear aliphatic hydrocarbon of biogenic origin; • dibenzothiophene (DBT, C12H8S), a sulphur-containing aromatic hydrocarbon.
# (§8) The aliphatic hydrocarbons (C16; C16:1) are added to the corresponding tubes, at a rate of 0.04 ml/10 ml of culture medium. The aromatic hydrocarbons (DBT) are solubilized in 2,2,4,4,6,8,8-heptamethylnonane (HMN, C16H34) at a rate of 20 mg/ml of HMN, and 0.75 ml of this solution is injected into 10 ml of culture medium.
# (§9) 3 tubes were produced for each test and control. The growth of the strains was monitored indirectly by the production of sulphide.
# as §3
# [4] = tested on: Archaeoglobus fulgidus (collection strain); assay: Quantitative study of the degradation of hydrocarbons (DBT, HMN), collection strain; format: cell-based
# Procedure: Experiments were carried out in order to establish the stoichiometric equation of the degradation of hydrocarbons in the case of the collection strain only. Thus, the hydrocarbon concentrations were assayed at the initial and final time, like the thiosulphate concentrations. Moreover, the increase in the biomass was followed by the increase in the microbial population based on the most probable number method (MPN).
# In order to be able to quantify the hydrocarbons with precision, the thick rubber stoppers were covered with a Teflon film, an inert substance which avoids any loss of the hydrocarbon by absorption or adsorption.
# The hydrocarbons were added at a rate of: • for the DBT: 10 mg of DBT dissolved in 0.5 ml of HMN, 0.5 ml of this solution is added to the tests; • for the HMN: 6 μl of HMN/10 ml of culture medium.
# The tests prepared are inoculated with the preceding subculture.
# A. fulgidus [5] = assay: Subculture on hydrocarbons, A. fulgidus (sulphide production); format: cell-based, Archaeoglobus fulgidus; conditions: for ΔS tf-ti: final minus initial sulphide
# Procedure: as §1, §2, §3, §4
# Archaeoglobus fulgidus [6] = assay: Screening for hydrocarbon degradation, A. fulgidus (sulphide production, Cord-Ruwish); format: cell-based
# Procedure: as §1, §2, §5, §6, §7, §8, §9, §3
# [7] = tested on: Archaeoglobus fulgidus DSM 4304; assay: Monitoring of thiosulphate during the degradation of fatty acids by A. fulgidus; format: cell-based; conditions: end of May 2005; E1/E2 replicates; listed as C5 fatty acid
# Procedure: (§10) The thiosulphate and sulphate assays are carried out by ion chromatography.
# (§11) The analyses are carried out with a chromatograph (Compact IC 761, Metrohm) equipped with: • A […] ion-exchange column (Metrosep A SUPP 1-250 (6.1005.300)), size 4.6*250 mm; • The eluent used is Na2CO3 at a concentration of 3 mmol/l, at a flow rate of 1 to 2.5 ml/min; ((→the flow rate varies during the analysis)) • A sample processor (Metrohm 838); • A conductimeter; • A computer where the results are recorded, integrated and analyzed by software (761 Compact IC, Metrohm). III.3.2. Operating Method
# (§12) The operating conditions are such that the temperature is 20° C. and the pressure is 5 MPa. The samples to be analyzed are filtered. The injection volume is 20 μl. The detection is of conductimetric electrochemical type with chemical suppression allowing elution gradients.
# (§13) Monitoring of thiosulphate during the degradation of fatty acids by A. fulgidus and by L-3
# strain L-3 [8] = assay: Monitoring of thiosulphate during the degradation of fatty acids by L-3; format: cell-based, Archaeoglobus fulgidus CNCM I-3465 (strain L-3); conditions: time 0 (Feb. 5, 2005); E1/E2 replicates
# Procedure: as §10, §11, §12, §13
# [9] = tested on: Archaeoglobus fulgidus (DSM 4304); assay: Degradation of different substrates by A. fulgidus as a function of the electron acceptor; format: cell-based; conditions: for total H2S: unit from b116
# Procedure: as §1, §2
# (§14) The analysis and quantification of the metabolites are carried out by HPLC by measuring the disappearance of the substrate and the appearance of different metabolism products.
# (§15) The study of the degradation abilities of different substrates of the strain L-3 was based on a comparison with the collection strain, Archaeoglobus fulgidus (DSM 4304). The degradation of the substrates, by the two strains was monitored by a measurement of the cell biomass at 580 nm, a sulphide assay produced according to the Cord-Ruwish method, a study of the degradation metabolites by HPLC, completed by a CO2 assay with a GPC-Katharometer.
# (§16) Two series of tests were prepared, one with thiosulphate, the other with sulphate as an electron acceptor.
# Archaeoglobus fulgidus [10] = assay: Degradation kinetics of lactate; format: cell-based
# Procedure: as §14
# This can be explained by the fact that the strain L-3 can have a substrate degradation metabolism different from that of Archaeoglobus fulgidus.
# strain L-3 [11] = assay: Sources of carbon and energy used by the strain L-3; format: cell-based, Archaeoglobus fulgidus CNCM I-3465 (strain L-3); conditions: thiosulphate as electron acceptor; for H2S (480 nm): unit from b126
# Procedure: as §1, §2, §14
# The study of the growth of the strain L-3 in the presence of different sources of carbon and energy was carried out with thiosulphate as an electron acceptor. The monitoring was carried out by estimation of the cell biomass (OD 580 nm), by assay of the sulphide production (Cord-Ruwish). The results were confirmed by HPLC analyses, and completed in certain cases by a CO2 assay.
# strain L-3 [12] = assay: Degradation of different substrates by the strain L-3 as a function of the electron acceptor; format: cell-based, Archaeoglobus fulgidus CNCM I-3465 (strain L-3); design: total H2S: unit not given here
# Procedure: as §1, §2, §14, §15, §16
# [13] = choice of the inoculum for the subculture
# [14] = thiosulphate as electron acceptor
# [15] = thiosulphate or sulphate as electron acceptor
Molecule,microbial growth with sulphate as electron acceptor (A. fulgidus [1]),sulphide production (OD 480) 0 d (strain L-3 [2]),sulphide production (OD 480) 8 d (strain L-3 [2]),sulphide production (OD 480) 22 d (strain L-3 [2]),sulphide production (OD 480) 45 d (strain L-3 [2]),sulphide production (OD 480) 45 d (strain L-3 [3]),sulphide production (OD 480) 70 d (strain L-3 [3]),Count (strain L-3 [3]),OD 580 (strain L-3 [3]),H2S (strain L-3 [3]),ΔS tf-ti (strain L-3 [3]),sulphide assay at the end of 75 days [4],sulphide production (OD 480) 8 d (A. fulgidus [5]),sulphide production (OD 480) 22 d (A. fulgidus [5]),ΔS tf-ti (A. fulgidus [5]),sulphide production (OD 480) 10 d (Archaeoglobus fulgidus [6]),sulphide production (OD 480) 45 d (Archaeoglobus fulgidus [6]),sulphide production (OD 480) 60 d (Archaeoglobus fulgidus [6]),sulphide production (OD 480) 45 d (A. fulgidus [5]),sulphide production (OD 480) 70 d (Archaeoglobus fulgidus [6]),further results
"c1ccc2c(c1)sc1ccccc12 [DBT, dibenzothiophene]",no microbial growth,0.3 mM and 0.2 mM,0.6 mM and 0.4 mM,1.1 mM and 1 mM and 0.8 mM,2 mM and 1.1 mM and 1 mM,1 mM and 1.2 mM and 1.4 mM,0.9 mM and 1.2 mM and 1.4 mM,8.17*10^7 Cells/ml and 6.55*10^7 Cells/ml,0.2284 and 0.3479,0.9 mM and 1.2 mM,0.8 mM and 1.2 mM and 1.5 mM,approximately 9.5 mM,1.3 mM and 1.1 mM and 1.2 mM,2.1 mM and 1.9 mM,3 mM and 3.1 mM and 3.2 mM,0.6 mM and 0.8 mM and 0.7 mM,1.1 mM and 1.3 mM,1.1 mM and 1.7 mM and 1.5 mM,–,–,"sulphide production (OD 480) 60 d (strain L-3 [3]; 60 d): 0.6 mM and 0.7 mM and 1.1 mM; sulphide production (OD 480) 0 d (A. fulgidus [5]; 0 d): 0.2 mM and 0.1 mM; sulphide production (OD 480) 0 d (Archaeoglobus fulgidus [6]; 0 d, aromatics solubilized in HMN): 0.4 mM and 0.3 mM and 0.5 mM; sulphide value in the hydrocarbon screening stage (ΔS45d, Table 1) (Archaeoglobus fulgidus [6]; 45 days): ≤ 1 mM; Count (Archaeoglobus fulgidus [6]; [13]): 9.4*10^7 Cells/ml and 8.33*10^7 Cells/ml and 7.22*10^7 Cells/ml; OD 580 (Archaeoglobus fulgidus [6]; [13]): 0.9801 and 1.424 and 0.9189"
"CC(CC(C)(C)C)CC(C)(C)CC(C)(C)C (centres unmarked) [HMN, 2,2,4,4,6,8,8-heptamethylnonane]",no microbial growth,0.3 mM and 0.2 mM,0.6 mM and 0.5 mM and 0.4 mM,1 mM and 0.9 mM and 0.6 mM,–,0.7 mM and 0.9 mM,1 mM and 1.4 mM and 1.9 mM,6.08*10^7 Cells/ml,0.5921 and 0.6696,1 mM and 1.4 mM and 2 mM,1 mM and 1.4 mM and 2 mM,approximately 6 mM,0.6 mM and 1 mM and 0.7 mM,–,1.4 mM and 2.5 mM and 1.5 mM,0.8 mM and 1 mM,0.8 mM and 1.1 mM,0.9 mM and 0.7 mM and 1.3 mM,2 mM and 3.5 mM and 2.2 mM,1.3 mM and 0.9 mM and 1.2 mM,"Sulphide (mM)(480 nM) ([4]; after 7 weeks of incubation, with yeast extract (EL)): 1.3 mM; sulphide production during the subculture, on average (A. fulgidus [5]): 1.8 mM; H2S (Archaeoglobus fulgidus [6]; choice of the inoculum for the subculture, tubes of the screening): 1.3 mM and 0.9 mM and 1.2 mM"
CCCCC(=O)O [valerate],–,–,–,–,–,–,–,–,–,–,–,–,–,–,–,–,–,–,–,–,"thiosulphate, end of May 2005 [7]: 11.86 mM and 9.39 mM; thiosulphate, time 0 (strain L-3 [8]): 13.95* mM"
lactate,–,0.2 mM and 0.1 mM,4.8 mM and 6.1 mM,4.7 mM and 8 mM,3.9 mM,1.8 mM and 3.2 mM and 1.7 mM,–,–,–,–,–,–,0.3 mM,0.3 mM,–,–,3.5 mM and 3.8 mM and 4.3 mM,3.3 mM and 3 mM and 3.1 mM,0.2 mM and 0.3 mM,3.9 mM and 3.7 mM,"initial OD 580 ([9]; sulphate as electron acceptor): 0.1657 and 0.1456; total H2S ([9]; sulphate as electron acceptor): 7.1 mM and 12.2 mM; final OD 580 [9, 14]: 0.3681 and 0.314; initial OD 580 [9, 14]: 0.1333 and 0.1419; total H2S [9, 14]: 8 mM and 9.3 mM; ability of Archaeoglobus fulgidus to oxidize the substrate [9, 15]: capable of oxidizing; lactate degradation at the end of three months (Archaeoglobus fulgidus [10]): all of the lactate is degraded; OD 580 nm Final (strain L-3 [11]): 0.1249 and 0.1173; OD 580 nm Initial (strain L-3 [11]): 0.0742 and 0.0841; H2S (480 nm) (strain L-3 [11]): 5.7 mM and 2.9 mM; H2S (480 nm) (strain L-3 [11]; listed as lactate): 5.7 mM; final OD 580 (strain L-3 [12]; sulphate as electron acceptor): 0.3076 and 0.2071; initial OD 580 (strain L-3 [12]; sulphate as electron acceptor): 0.1024 and 0.0888; total H2S (strain L-3 [12]; sulphate as electron acceptor): 2.8 and 1.4; final OD 580 (strain L-3 [12]; [14]): 0.1027 and 0.1161; initial OD 580 (strain L-3 [12]; [14]): 0.073 and 0.1029; total H2S (strain L-3 [12]; [14]): 9.3 and 7.2; ability of the strain L-3 to degrade the substrate (strain L-3 [12]; [15]): capable of degrading; ΔS tf-ti (Archaeoglobus fulgidus [6]; final minus initial sulphide): 3.6 mM and 3.2 mM"
